Patent US7576127B2, “Aromatic prodrugs of propofol, compositions and uses thereof” (XenoPort, Inc., priority 2003, dated 2009)

Legend:
[1] = oral dosing, rats; Raoof et al., Pharm. Res. 1996; cited from earlier work
human SMVT (SLC5A6) = target: T1, human SMVT (SLC5A6) (Homo sapiens, UniProt Q9Y289); assay: Electrogenic transport in SMVT-expressing Xenopus oocytes (two-electrode voltage-clamp); format: cell-based; conditions: tested at 0.5 mM on oocytes expressing SMVT; membrane potential -60 mV
T1 construct: The complete open reading frame of human SMVT (SLC5A6) was amplified; expressed in transfected cells; host or cells: Xenopus oocytes injected with cRNA transcribed in vitro from the pMO plasmid
T1 sequence (Q9Y289 1-635): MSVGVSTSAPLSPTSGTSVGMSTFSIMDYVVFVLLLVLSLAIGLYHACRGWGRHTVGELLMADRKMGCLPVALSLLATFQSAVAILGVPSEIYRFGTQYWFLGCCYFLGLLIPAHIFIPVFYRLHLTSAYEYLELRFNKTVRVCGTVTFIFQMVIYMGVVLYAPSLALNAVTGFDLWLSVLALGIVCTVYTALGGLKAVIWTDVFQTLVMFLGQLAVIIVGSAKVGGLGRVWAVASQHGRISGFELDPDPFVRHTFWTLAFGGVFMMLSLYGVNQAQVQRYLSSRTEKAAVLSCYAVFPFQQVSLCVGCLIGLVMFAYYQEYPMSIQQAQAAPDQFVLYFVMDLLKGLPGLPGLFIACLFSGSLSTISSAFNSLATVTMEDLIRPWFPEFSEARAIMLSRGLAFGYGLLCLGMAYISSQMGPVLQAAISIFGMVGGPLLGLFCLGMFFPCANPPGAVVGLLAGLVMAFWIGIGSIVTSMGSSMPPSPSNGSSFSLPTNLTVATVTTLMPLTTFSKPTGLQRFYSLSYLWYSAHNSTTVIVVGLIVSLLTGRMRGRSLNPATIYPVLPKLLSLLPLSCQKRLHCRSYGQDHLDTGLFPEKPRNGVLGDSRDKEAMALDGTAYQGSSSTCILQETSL
Source text: Transporter Cloning: The complete open reading frame of human SMVT (SLC5A6) was amplified from human cDNA prepared from intestinal mRNA. Gene-specific oligonucleotide primers were designed against Genbank sequences (NM-021095). Amplified PCR products were cloned into a modified version of the mammalian expression vector pcDNA3 (termed pMO) that was engineered to contain the 5′ and 3′ untranslated regions from the Xenopus beta-globin gene. All clones were completely sequenced and tested for function by transient transfection in HEK293 cells. Radiolabeled ^3H biotin was used to assess SMVT function (see method below).
Xenopus Oocyte Expression and Electrophysiology: cRNA for oocyte expression was prepared by linearization of plasmid cDNA and in vitro transcription using T7 polymerase (Epicentre Ampliscribe kit). Xenopus oocytes were prepared and maintained as previously described (Collins et al., Proc. Natl. Acad. Sci. 1997, 13:5456-5460) and injected with 10-30 ng RNA. Transport currents were measured 2-6 days later using two-electrode voltage-clamp (Axon Instruments). […] Half-maximal concentrations were calculated using non-linear regression curve fitting software (Prism) with the Hill co-efficient fixed to 1. […]

SMILES | fraction of administered drug undergoing first pass metabolism [1] | SMVT-specific currents above background, normalized to maximal biotin elicited current (human SMVT (SLC5A6))
CC(C)c1cccc(C(C)C)c1O [Propofol, 2,6-diisopropylphenol] | approximately 90% | 
CC(C)c1cccc(C(C)C)c1OC(=O)c1ccccc1C(=O)NCCC(=O)O [Compound 101, 3-{[2-[2,6-Bis(isopropyl)phenoxycarbonyl]-benzoyl]amino}-propanoic acid] |  | at least 10 % of Imax for biotin
